Source: patent publication US20240335438A1, “TARGETING DOT1L AND SMARCA4/2 FOR THE TREATMENT OF MLLR LEUKEMIA” (DANA-FARBER CANCER INSTITUTE, INC., priority 2021, published 2024)
“Also recorded” adds a separate entry of the source.

Assays:
MLL-AF9 targets = test: RNA sequencing of MLL-AF9 targets (heatmap, GSEA) in MOLM13 cells; format: cell-based; settings: EPZ5676 1.25 μM 4 days, S31 1 μM 6-10 hr, FIG. 11A
Experimental: MOLM13 cells were primed with 1.25 μM of EPZ5676 or DMSO for 4 days. At day 5, additional S31 (1 μM) or DMSO was added for another 6-10 hr. Cells were harvested and subjected to RNA isolation. Isolated RNA was sent to Novogene (USA) for RNA sequencing. Expression values of MLL-AF9 targets from each treatment group were plotted in heatmap (Morpheus) (FIG. 11A). GSEA analysis was performed by GSEA software 4.1.0 (Broad Institute) (FIG. 11B).
The molecular interdependency between DOT1L inhibition and SMARCA4/2 inactivation was explored using RNA-seq in MOLM13 cells treated with DMSO. S31. EPZ5676 and S31+EPZ5676. Persistent expression of MLL fusion targets maintained the leukemic transformation as a stem cell-like state. […] To define a detailed regulatory pattern of the effects of SMARCA4/2 and DOT1L on these genes, the RNA-seq results were plotted in a heatmap and identified one subset of genes are of particular interest. […] However, the combination of the two induced significant reduction of genes such as MYB and FLT3, which are critical for MLLr leukemia proliferation. S31 sensitized such MLL-AF9) targets to EPZ5676. This was confirmed via Q-PCR.

[1] = system: MLLr acute myeloid leukemia (AML); settings: cited from earlier work
MLL rearranged cells = settings: cited from earlier work
SMARCA4 [2] = target: T1, SMARCA4 (Homo sapiens, UniProt P51532); test: SMARCA4 degradation by Western Blotting in MOLM13 cells; format: cell-based; set-up: endogenous in cells; host or cells: MOLM13 WT and CRBN KO cells; settings: MOLM13 WT and CRBN KO cells, 1 μM, indicated time points, FIG. 2
Experimental: (§1) MOLM13 WT and CRBN KO cells were treated with 1 μM of S31 at indicated time points. Cell lysates were harvested, and proteins were extracted using RIPA buffer.

[3] = system: panel of leukemia cell lines; test: Growth inhibition in a panel of leukemia cell lines (ATPlite); format: cell-based; settings: 72 hr, FIG. 3
Experimental: S31 was treated in a panel of leukemia cell lines with 10 doses ranging from 10 μM to 1 nM. After 72 hr of treatment, growth inhibition was determined by ATPlite™ (PerkinElmer®). IC50 was calculated by GraphPad Prism® 7 (FIG. 3).

cleaved PARP = test: Cleaved PARP expression (apoptosis); format: cell-based; settings: after 6 hours of treatment
Experimental: as §1
Chemical inhibition of targeted proteins offered the opportunity to understand the function and therapeutic potential of the targets with temporal control. There are several small molecule inhibitors that have been reported to target SMARCA2/4. […] Therefore, PROTACs, bridging small molecules that recruit the target protein into proximity with the E3 ligase system to initiate proteasomal degradation of targeted proteins inside the cells, were developed to target SMARCA2/4. The strategy has recently been described and utilized for the depletion of multiple targets including BRD4, FKBP12, ERR, RIPK2 and BRD9. Compound (1) (S31) is a molecule that contains phthalimide (thalidomide, lenalidomide and pomalidomide, also known as IMiDs®), a CRBN binder, and a SMARCA4/2 binder that are linked via an alkyl linker. The PROTAC dimerized targeted proteins and CRBN, and induced polyubiquitylation followed by proteasomal degradation of SMARCA4/2.

SMARCA2 [4] = target: T2, SMARCA2 (Homo sapiens, UniProt P51531); test: DSF assay (Protein Thermal Shift Dye Kit), SMARCA2 binding; settings: 30 min incubation, indicated ratios, FIG. 1A
Experimental: (§2) Recombinant SMARCA4 and SMARCA2 proteins were incubated with S31 at indicated ratios. After 30 min of incubation, DSF assay was performed using Protein Thermal Shift™ Dye Kit (ThermoFisher™) according to manufacture instructions (FIG. 1A).

SMARCA4 [5] = target: T1, SMARCA4; test: DSF assay (Protein Thermal Shift Dye Kit), SMARCA4 binding; settings: 30 min incubation, indicated ratios, FIG. 1A
Experimental: as §2

SMARCA2 [6] = target: T2, SMARCA2; test: SMARCA2 degradation by Western Blotting in MOLM13 cells; format: cell-based; set-up: endogenous in cells; host or cells: MOLM13 WT and CRBN KO cells; settings: MOLM13 WT and CRBN KO cells, 1 μM, indicated time points, FIG. 2
Experimental: as §1

His-CRBN = His-CRBN (Homo sapiens, UniProt Q96SW2); test: CRBN binding, biotin-pomalidomide probe with streptavidin donor and nickel chelate acceptor beads; settings: 50 nM His-CRBN, 1 hr, FIG. 1B
Experimental: 50 nM of His-CRBN was incubated with biotinylated probe (biotin-pomalidomide), streptavidin donor beads (PerkinElmer®), nickel chelate acceptor beads (PerkinElmer®) and compounds (S31, PFI3 or pomalidomide at indicated concentrations) for 1 hr. After incubation, […] was read according to manufacture instructions (FIG. 1B).

T2 sequence (P51531 whole entry): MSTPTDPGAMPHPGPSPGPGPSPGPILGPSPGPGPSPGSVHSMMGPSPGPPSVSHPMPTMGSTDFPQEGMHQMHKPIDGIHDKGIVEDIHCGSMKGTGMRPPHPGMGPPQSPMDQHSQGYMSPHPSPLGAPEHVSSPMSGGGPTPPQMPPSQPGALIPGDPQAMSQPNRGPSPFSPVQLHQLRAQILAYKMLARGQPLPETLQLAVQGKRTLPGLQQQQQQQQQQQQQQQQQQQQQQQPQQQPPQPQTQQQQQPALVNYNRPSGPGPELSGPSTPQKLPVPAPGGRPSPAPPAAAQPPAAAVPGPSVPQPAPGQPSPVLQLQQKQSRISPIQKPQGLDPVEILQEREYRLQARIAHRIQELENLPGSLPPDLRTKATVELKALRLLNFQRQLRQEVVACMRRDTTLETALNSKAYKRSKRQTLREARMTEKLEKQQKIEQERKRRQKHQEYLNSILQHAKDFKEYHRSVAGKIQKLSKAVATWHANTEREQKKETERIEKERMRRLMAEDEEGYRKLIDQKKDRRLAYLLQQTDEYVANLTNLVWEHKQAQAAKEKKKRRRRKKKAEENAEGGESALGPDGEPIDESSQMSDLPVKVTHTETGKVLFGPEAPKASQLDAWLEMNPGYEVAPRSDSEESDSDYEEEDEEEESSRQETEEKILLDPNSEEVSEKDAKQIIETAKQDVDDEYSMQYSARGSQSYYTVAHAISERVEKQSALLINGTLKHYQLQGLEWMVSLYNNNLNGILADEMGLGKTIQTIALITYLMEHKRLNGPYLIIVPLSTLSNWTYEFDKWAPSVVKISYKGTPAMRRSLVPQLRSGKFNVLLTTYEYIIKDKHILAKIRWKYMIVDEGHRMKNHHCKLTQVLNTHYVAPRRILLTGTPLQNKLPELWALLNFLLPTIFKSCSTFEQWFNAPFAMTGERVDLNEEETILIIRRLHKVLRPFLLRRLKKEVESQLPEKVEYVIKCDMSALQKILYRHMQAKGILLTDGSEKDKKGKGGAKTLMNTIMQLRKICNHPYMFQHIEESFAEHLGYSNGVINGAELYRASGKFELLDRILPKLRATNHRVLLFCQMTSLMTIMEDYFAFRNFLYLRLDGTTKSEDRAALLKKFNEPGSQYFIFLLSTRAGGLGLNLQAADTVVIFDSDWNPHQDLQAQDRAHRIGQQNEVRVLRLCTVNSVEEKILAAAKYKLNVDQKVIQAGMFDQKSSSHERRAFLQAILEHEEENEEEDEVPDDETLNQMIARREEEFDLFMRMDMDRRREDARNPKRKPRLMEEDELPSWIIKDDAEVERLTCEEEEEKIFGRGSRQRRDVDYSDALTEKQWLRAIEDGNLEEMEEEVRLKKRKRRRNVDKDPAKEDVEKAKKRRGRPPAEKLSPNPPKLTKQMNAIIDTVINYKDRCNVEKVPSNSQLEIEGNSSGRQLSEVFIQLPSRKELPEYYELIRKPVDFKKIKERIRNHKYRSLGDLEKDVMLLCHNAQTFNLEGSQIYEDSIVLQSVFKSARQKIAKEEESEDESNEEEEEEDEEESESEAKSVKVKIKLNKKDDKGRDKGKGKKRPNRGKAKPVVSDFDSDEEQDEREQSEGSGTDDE
T1 sequence (P51532 whole entry): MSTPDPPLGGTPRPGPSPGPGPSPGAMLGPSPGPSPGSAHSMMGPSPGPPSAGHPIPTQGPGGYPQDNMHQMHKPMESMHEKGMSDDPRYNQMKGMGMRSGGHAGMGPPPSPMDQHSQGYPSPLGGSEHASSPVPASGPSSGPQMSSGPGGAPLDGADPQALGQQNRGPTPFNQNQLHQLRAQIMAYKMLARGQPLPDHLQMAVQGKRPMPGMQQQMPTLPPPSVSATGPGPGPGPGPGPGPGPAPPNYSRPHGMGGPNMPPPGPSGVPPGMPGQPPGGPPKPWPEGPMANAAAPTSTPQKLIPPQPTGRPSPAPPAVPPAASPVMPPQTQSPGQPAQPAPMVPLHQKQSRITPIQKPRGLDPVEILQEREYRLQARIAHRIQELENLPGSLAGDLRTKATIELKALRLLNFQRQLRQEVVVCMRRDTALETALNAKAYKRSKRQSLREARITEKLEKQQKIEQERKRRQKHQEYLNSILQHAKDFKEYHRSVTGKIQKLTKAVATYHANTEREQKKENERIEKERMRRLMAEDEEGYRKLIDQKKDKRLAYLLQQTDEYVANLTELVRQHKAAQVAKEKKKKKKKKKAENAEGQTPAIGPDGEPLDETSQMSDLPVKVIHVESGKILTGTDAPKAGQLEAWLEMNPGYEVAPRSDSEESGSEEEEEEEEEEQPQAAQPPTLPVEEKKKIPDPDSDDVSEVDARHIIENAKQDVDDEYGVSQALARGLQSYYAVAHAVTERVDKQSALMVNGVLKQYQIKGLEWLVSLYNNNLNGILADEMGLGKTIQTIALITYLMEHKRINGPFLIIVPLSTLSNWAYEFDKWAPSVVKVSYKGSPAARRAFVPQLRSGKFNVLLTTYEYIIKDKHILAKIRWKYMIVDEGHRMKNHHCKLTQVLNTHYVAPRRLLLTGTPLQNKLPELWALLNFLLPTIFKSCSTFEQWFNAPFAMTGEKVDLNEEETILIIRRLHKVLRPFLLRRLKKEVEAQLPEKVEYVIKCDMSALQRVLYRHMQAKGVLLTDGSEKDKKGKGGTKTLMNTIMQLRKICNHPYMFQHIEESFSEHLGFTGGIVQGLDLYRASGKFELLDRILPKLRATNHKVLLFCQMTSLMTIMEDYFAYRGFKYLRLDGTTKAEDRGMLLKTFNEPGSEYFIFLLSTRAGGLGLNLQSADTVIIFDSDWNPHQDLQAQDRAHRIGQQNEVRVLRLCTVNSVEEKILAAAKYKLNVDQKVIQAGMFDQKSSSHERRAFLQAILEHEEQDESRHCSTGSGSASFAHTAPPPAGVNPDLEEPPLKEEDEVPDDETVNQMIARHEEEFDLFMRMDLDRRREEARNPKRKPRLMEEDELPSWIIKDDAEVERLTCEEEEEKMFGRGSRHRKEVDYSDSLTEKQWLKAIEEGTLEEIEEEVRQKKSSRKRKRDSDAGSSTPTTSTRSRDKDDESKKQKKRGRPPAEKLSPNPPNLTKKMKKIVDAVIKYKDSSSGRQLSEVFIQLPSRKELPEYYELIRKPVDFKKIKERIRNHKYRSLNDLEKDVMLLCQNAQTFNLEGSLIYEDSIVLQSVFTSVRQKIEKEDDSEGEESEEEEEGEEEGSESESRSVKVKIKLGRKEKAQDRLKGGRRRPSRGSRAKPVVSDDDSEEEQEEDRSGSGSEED
His-CRBN, sequence (Q96SW2 whole entry): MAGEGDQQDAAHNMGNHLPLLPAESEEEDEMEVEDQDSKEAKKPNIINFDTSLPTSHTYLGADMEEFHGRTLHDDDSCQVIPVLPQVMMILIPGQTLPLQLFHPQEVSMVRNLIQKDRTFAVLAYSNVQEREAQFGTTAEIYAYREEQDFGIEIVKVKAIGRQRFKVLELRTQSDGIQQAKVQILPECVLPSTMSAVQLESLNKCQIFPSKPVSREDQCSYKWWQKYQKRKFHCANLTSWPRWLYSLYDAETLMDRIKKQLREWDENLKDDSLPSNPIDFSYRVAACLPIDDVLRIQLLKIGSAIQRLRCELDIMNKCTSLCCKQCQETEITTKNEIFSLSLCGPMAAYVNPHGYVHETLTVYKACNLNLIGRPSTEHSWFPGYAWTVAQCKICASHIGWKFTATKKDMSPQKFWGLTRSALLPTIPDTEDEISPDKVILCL

SMILES	expression of MLL-AF9 target genes (subset such as MYB and FLT3), RNA-seq heatmap (MLL-AF9 targets)	clinical response ([1]; monotherapy)	side effect profile ([1]; treatment of MLLr AML)	anti-proliferative effects (MLL rearranged cells)	SMARCA4 degradation (SMARCA4 [2])	IC50 of cell growth ([3]; 10 doses from 10 μM to 1 nM)	cell growth inhibition / cytotoxicity [3]	cleaved PARP expression, indicating apoptosis (cleaved PARP)	binding to SMARCA2 (SMARCA2 [4])	binding to SMARCA4 (SMARCA4 [5])	SMARCA2 degradation (SMARCA2 [6])	binding to CRBN (His-CRBN)
CC(C)N(C[C@H]1OC(n2cnc3c(N)ncnc32)[C@H](O)[C@@H]1O)C1CC(CCc2nc3cc(C(C)(C)C)ccc3[nH]2)C1 (stereo partly drawn) [EPZ5676, (2R,3R,4S,5R)-2-(6-amino-9H-purin-9-yl)-5-((((1s,3R)-3-(2-(5-(tert-butyl)-1H-benzo[d]imidazol-2-yl)ethyl)cyclobutyl)(isopropyl)amino)methyl)tetrahydrofuran-3,4-diol]	could not—or just slightly—affect the gene expression	low effective responses and subsequent relapses	promising side effect profile	remarkably selective anti-proliferative effects	–	–	–	–	–	–	–	–
O=C1CCC(N2C(=O)c3ccc(NCCCCCCCCOCCc4cccc(N5C[C@H]6C[C@@H]5CN6/C=C/C(=O)c5ccccc5O)c4)cc3C2=O)C(=O)N1 (stereo partly drawn) [S31, 2-(2,6-dioxopiperidin-3-yl)-5-((8-(3-((1R,4R)-5-((E)-3-(2-hydroxyphenyl)-3-oxoprop-1-en-1-yl)-2,5-diazabicyclo[2.2.1]heptan-2-yl)phenethoxy)octyl)amino)isoindoline-1,3-dione]	could not—or just slightly—affect the gene expression; also recorded: sensitizes MLL-AF9 targets to EPZ5676	–	–	–	degraded; also recorded: degradation was observed	low nanomolar range	profound inhibition; also recorded: induces cytotoxicity	cleaved PARP expression abundance was observed	binds	binds	degraded; also recorded: degradation was observed	binds
